Measurements reported in the kinase profiling compilation of Christmann-Franck et al. (2016).

Each compound was assayed against SGK1 (human) (UniProt O00141) (assay: Flashplate).
Sequence of SGK1 (human) (O00141 whole entry, looked up): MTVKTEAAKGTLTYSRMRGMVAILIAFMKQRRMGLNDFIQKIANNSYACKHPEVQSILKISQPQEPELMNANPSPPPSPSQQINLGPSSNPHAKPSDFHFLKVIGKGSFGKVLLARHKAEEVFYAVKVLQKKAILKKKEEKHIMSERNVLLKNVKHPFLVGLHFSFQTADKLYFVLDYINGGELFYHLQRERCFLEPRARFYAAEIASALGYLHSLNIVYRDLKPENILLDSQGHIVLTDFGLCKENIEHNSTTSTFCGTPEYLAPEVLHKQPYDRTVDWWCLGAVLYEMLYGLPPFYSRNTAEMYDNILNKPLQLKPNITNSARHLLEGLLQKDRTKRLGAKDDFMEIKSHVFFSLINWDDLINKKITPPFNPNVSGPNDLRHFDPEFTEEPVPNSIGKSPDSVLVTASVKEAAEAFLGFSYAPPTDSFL
Cc1[nH]c(/C=C2\C(=O)Nc3ccccc32)c(C)c1CCC(=O)O gave a Ki of 5.01 µM. CN(C)S(=O)(=O)c1ccccc1-c1ccc2c(c1)Nc1ccccc1NC2=O gave a Ki greater than 10 µM. Compound Cc1c(C=O)c(O)n2c(nc3ccccc32)c1C#N has a Ki greater than 10 µM. Cc1nc2ccc(NS(=O)(=O)c3ccc(N)cc3)cc2nc1C was tested, and the Ki was greater than 10 µM. Compound N[C@@H]1[C@H]2CN(c3nc4c(cc3F)c(=O)c(C(=O)O)cn4-c3ccc(F)cc3F)C[C@@H]12 has a Ki greater than 10 µM. COc1ccc(/C=C2/C(=O)ON=C2c2ccc(Br)cc2)cc1OC was tested, and the Ki was greater than 10 µM. Compound Cc1n[nH]c2c1C(c1ccccc1F)C1=C(CC(C)(C)CC1=O)N2 (centres undefined) has a Ki greater than 10 µM. With Cc1cccc(NC(=O)Nc2ccc(-c3cccc4c3CNC4=O)cc2)c1 the Ki was greater than 10 µM. CC(=O)Nc1c(C(N)=O)sc2ccc(Cl)c(Cl)c12 was tested, and the Ki was 3.98 µM. Work on Cc1c(O)ccc2c1CCC/C2=N/NC(=O)Cc1cccc2ccccc12 yielded a Ki of 0.501 µM. For CCCC(=O)Nc1n[nH]c2nnc(-c3cccc(F)c3F)cc12, the Ki was greater than 10 µM. Work on O=C(NCc1ccc(Br)cc1)Nc1ccc2[nH]ncc2c1 yielded a Ki of 1 µM. Cc1ccc(NC(=O)Nc2ccc(-c3csc4c(-c5cnn(C(C)C(=O)N(C)C)c5)cnc(N)c34)cc2)cc1 (centres undefined) was tested, and the Ki was greater than 10 µM. With CCCOc1nc(NC(C)=O)cc(N)c1C#N the Ki was greater than 10 µM. Work on CC1CSc2c(C(=O)O)c(=O)c3cc(F)c(N4CC[C@@H](N)C4)c(F)c3n21 (some centres undefined) yielded a Ki greater than 10 µM. For Cc1cccc(NC(=O)Nc2ccc(-c3csc4c(C#CCN5CCCC5)cnc(N)c34)cc2)c1, the Ki was 5.01 µM. With Cn1cc(-c2cnc(N)c3c(-c4ccc(NC(=O)Nc5cccc(F)c5)cc4)csc23)cn1 the Ki was 2 µM. Cc1cccc(Nc2nccc(Nc3c(N[C@H](C)C(C)(C)C)c(=O)c3=O)n2)c1 showed a Ki of 1 µM. With CC(C)Oc1nccn2c(-c3ccnc(NCC(C)(C)O)n3)c(-c3ccc(F)cc3F)nc12 the Ki was greater than 10 µM. In the case of Cc1ccc(CNc2c(Nc3ccncc3)c(=O)c2=O)cc1C, the Ki is reported as greater than 10 µM. For O=C1NCc2c1cccc2-c1ccc(Nc2nc3ccccc3o2)cc1, the Ki was greater than 10 µM. CO[C@@H](C(=O)N1Cc2[nH]nc(NC(=O)c3ccc(N4CCN(C)CC4)cc3)c2C1)c1ccccc1 was tested, and the Ki was greater than 10 µM. NC(=O)c1cc(Cl)cc2[nH]c(-c3ccc(C4CCCNC4)cc3F)nc12 (centres undefined) was tested, and the Ki was greater than 10 µM. For CCOc1nc(C(=O)NCc2cccnc2)cc(N)c1C#N, the Ki was greater than 10 µM. For Cn1c2ccccc2c2c3c(c4c5ccccc5n(CCC#N)c4c21)CNC3=O, the Ki was greater than 10 µM. N#Cc1ncc2nc1OCCCCCOc1cc(OCCCO)c(Cl)cc1NC(=O)N2 showed a Ki greater than 10 µM. For CC(C)(C)OC(=O)n1ncc2cc(Nc3c(NCc4ccc(S(N)(=O)=O)cc4)c(=O)c3=O)ccc21, the Ki was greater than 10 µM. Work on COc1ccc(OC)c(Nc2ccc3nnc(-c4ccccc4)n3n2)c1 yielded a Ki greater than 10 µM. In the case of Cc1cc(C)c(C)c(OCCCc2c(C(=O)O)[nH]c3c(-c4ccccc4C)cccc23)c1, the Ki is reported as greater than 10 µM. N#CCOc1ccc(Nc2nc(Nc3cccc(S(N)(=O)=O)c3)ncc2Br)cc1 was tested, and the Ki was 0.398 µM. In the case of Brc1cnc2[nH]cc(-c3ccccc3)c2c1, the Ki is reported as 1.58 µM. In the case of Nc1ccc(-c2csc3c(/C=C/c4nc5ccccc5[nH]4)cnc(N)c23)cc1, the Ki is reported as 7.94 µM. With O=C(O)c1ccccc1Nc1ccnc(Nc2ccc3cn[nH]c3c2)n1 the Ki was 0.2 µM. For CNC(=O)c1cnc(N)c2c(-c3ccc(NC(=O)Nc4cccc(Cl)c4)cc3)csc12, the Ki was 3.16 µM. Cc1ccc(-c2cnc(N)c3c(-c4ccc(NC(=O)Nc5cccc(F)c5)cc4)csc23)cn1 showed a Ki greater than 10 µM. O=C(Nc1cccc(Cl)c1)Nc1ncc(CCNc2ncnc3ccsc23)s1 was tested, and the Ki was greater than 10 µM. Work on CNC(=O)COc1ccc(Nc2nc(Nc3ccc(C)c(S(N)(=O)=O)c3)ncc2F)cc1 yielded a Ki greater than 10 µM. Cc1cc(Cl)ccc1NC(=S)NNC(=O)C(O)(c1ccccc1)c1ccccc1 showed a Ki of 6.31 µM. OCCNc1cc2cc(-c3ccncc3)ccc2cn1 was tested, and the Ki was greater than 10 µM. COc1ccc(/C=N/Nc2ncnc3c2[nH]c2ccccc23)cc1OC was tested, and the Ki was greater than 10 µM. O=c1[nH]cnc2c1oc1ccc(Cl)cc12 showed a Ki greater than 10 µM. Nc1nonc1-n1nnc(C(=O)N/N=C/c2ccncc2)c1-c1ccccc1 gave a Ki greater than 10 µM. Work on COc1cccc2c1Nc1cc(Nc3ccncc3)ccc1C(=O)N2 yielded a Ki greater than 10 µM. O=C(NCc1ccccc1)c1cccc(-c2cnc3[nH]ccc3c2)c1 gave a Ki greater than 10 µM.
